Laboratory results: patent US11866450B2, “Modulators of Cystic Fibrosis Transmembrane Conductance regulator, pharmaceutical compositions, methods of treatment, and process for making the modulators” (priority 2018, dated 2024)

Biological target: CFTR-mediated chloride transport (Homo sapiens, UniProt P13569)
Assay type: cell-based
Settings: enteroid cells incubated with test compound 18-24 hours, acute 10 μM forskolin and 300 nM Compound III; for Max. Activity: % of chloride transport with 3 μM Compound A, 3 μM Compound II and 300 nM acute Compound III triple combination control
Outline: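 Human intestinal enteroid cells incubated with compound 18–24 h at 37° C., then membrane potential dye (FLIPR) read 15 min after chloride-free stimulation with 10 μM forskolin, 100 μM IBMX and 300 nM Compound III. AUC expressed as % of triple-combination control (3 μM Compound A, 3 μM Compound II, 300 nM Compound III).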

Sequence of CFTR-mediated chloride transport (P13569 whole entry, looked up): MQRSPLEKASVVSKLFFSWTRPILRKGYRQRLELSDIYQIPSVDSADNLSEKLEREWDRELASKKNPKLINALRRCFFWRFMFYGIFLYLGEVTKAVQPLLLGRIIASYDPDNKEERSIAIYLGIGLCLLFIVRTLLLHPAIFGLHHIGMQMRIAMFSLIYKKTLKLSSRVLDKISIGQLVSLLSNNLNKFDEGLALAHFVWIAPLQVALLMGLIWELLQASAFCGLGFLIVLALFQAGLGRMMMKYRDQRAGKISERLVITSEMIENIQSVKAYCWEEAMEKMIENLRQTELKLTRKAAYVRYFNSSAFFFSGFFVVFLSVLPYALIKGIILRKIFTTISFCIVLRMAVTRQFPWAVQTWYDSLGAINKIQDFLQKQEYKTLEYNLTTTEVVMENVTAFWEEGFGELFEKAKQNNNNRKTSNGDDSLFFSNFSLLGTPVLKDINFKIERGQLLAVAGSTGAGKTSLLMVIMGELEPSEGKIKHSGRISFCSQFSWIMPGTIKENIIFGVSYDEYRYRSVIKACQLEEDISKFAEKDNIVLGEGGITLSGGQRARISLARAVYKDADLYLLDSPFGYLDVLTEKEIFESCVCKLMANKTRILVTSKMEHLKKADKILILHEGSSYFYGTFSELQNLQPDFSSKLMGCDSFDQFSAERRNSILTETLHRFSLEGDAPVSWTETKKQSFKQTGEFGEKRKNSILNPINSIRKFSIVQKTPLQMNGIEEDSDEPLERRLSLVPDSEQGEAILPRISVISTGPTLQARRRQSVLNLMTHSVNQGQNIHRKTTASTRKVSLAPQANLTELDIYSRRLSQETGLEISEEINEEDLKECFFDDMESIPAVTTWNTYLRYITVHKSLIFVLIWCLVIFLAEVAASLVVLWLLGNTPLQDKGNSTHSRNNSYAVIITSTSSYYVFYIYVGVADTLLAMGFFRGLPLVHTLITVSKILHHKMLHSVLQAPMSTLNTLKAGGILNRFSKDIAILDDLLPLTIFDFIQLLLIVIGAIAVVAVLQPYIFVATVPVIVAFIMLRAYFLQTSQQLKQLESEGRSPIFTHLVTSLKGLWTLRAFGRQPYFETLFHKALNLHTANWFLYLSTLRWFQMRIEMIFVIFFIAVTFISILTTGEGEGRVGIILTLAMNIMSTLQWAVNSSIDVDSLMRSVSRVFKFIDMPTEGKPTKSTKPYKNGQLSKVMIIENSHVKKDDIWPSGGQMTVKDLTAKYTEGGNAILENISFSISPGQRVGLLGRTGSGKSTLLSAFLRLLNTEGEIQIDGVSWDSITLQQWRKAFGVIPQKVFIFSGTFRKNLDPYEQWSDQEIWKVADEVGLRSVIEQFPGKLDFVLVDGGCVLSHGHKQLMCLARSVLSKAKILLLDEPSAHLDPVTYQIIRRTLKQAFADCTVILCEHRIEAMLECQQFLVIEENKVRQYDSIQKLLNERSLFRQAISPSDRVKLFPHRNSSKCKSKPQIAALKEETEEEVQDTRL

SMILES | EC50 | Max. Activity
CC1(C)C[C@H]2CCCNc3ccc(cn3)S(=O)(=O)NC(=O)c3ccc(-n4ccc(OCCC5(C(F)(F)F)CC5)n4)nc3N1C2 (single isomer, unassigned) [Compound 72, 12,12-dimethyl-8-(3-{2-[1-(trifluoromethyl)cyclopropyl]ethoxy}-1H-pyrazol-1-yl)-2λ^6-thia-3,9,11,18,20-pentaazatetracyclo[17.2.2.111,14.05,10]tetracosa-1(22),5,7,9,19(23),20-hexaene-2,2,4-trione] | > 3000 nM | + (+ is <30%)
CC1CCC2CN(c3nc(-n4ccc(OCCC5(C(F)(F)F)CC5)n4)ccc3C(=O)NS(=O)(=O)c3cccc(n3)N1)C(C)(C)C2 (stereo not shown) [Compound 35, 12,12,17-trimethyl-8-(3-{2-[1-(trifluoromethyl)cyclopropyl]ethoxy}-1H-pyrazol-1-yl)-2λ^6-thia-3,9,11,18,23-pentaazatetracyclo[17.3.1.111,14.05,10]tetracosa-1(23),5(10),6,8,19,21-hexaene-2,2,4-trione] | < 1000 nM | +++ (+++ is >60%)
CC(C)(C)COc1ccn(-c2ccc3c(n2)N2C[C@H](CCNc4cccc(n4)S(=O)(=O)NC3=O)CC2(C)C)n1 (single isomer, unassigned) [Compound 3, 11-[3-(2,2-dimethylpropoxy)-1H-pyrazol-1-yl]-7,7-dimethyl-17λ^6-thia-2,8,10,16,22-pentaazatetracyclo[16.3.1.15,8.09,14]tricosa-1(21),9(14),10,12,18(22),19-hexaene-15,17,17-trione] | < 1000 nM | +++ (+++ is >60%)
Cc1nn2cc1S(=O)(=O)NC(=O)c1ccc(-n3ccc(OCC(C)(C)C(F)(F)F)n3)nc1N1C[C@H](CCC2)CC1(C)C (single isomer, unassigned) [Compound 291, 12,20,20-trimethyl-4-[3-(3,3,3-trifluoro-2,2-dimethylpropoxy)-1H-pyrazol-1-yl]-10λ^6-thia-1,3,9,13,14-pentaazatetracyclo[16.2.1.111,14.02,7]docosa-2,4,6,11(22),12-pentaene-8,10,10-trione] | < 1000 nM | ++ (++ is 30-60%)
CC1(C)C[C@@H]2CCCNc3cccc(n3)S(=O)(=O)NC(=O)c3ccc(N4CCC5(CCCCC5)C4=O)nc3N1C2 [Compound 222, (14S)-12,12-dimethyl-8-{1-oxo-2-azaspiro[4.5]decan-2-yl}-2λ^6-thia-3,9,11,18,23-pentaazatetracyclo[17.3.1.111,14.05,10]tetracosa-1(22),5,7,9,19(23),20-hexaene-2,2,4-trione] | < 1000 nM | ++ (++ is 30-60%)
CC(C)(C)CCCC1CCN(c2ccc3c(n2)N2C[C@@H](CCCNc4cccc(n4)S(=O)(=O)NC3=O)CC2(C)C)C1=O (stereo partly drawn) [Compound 102, (14S)-8-[3-(4,4-Dimethylpentyl)-2-oxopyrrolidin-1-yl]-12,12-dimethyl-2λ^6-thia-3,9,11,18,23-pentaazatetracyclo[17.3.1.111,14.05,10]tetracosa-1(22),5,7,9,19(23),20-hexaene-2,2,4-trione] | < 1000 nM | +++ (+++ is >60%)
[2H]c1ccc2nc1NCCC[C@@H]1CN(c3nc(-n4ccc(OC([2H])([2H])C([2H])([2H])C5C6(CC6)C56CC6)n4)ccc3C(=O)NS2(=O)=O)C(C)(C)C1 [Compound 301, (14S)-8-[3-(2-{dispiro[2.0.2.1]heptan-7-yl}-1,1,2,2-tetradeuterio-ethoxy)-1H-pyrazol-1-yl]-12,12-dimethyl(20-deuterio)-2λ^6-thia-3,9,11,18,23-pentaazatetracyclo[17.3.1.111,14.05,10]tetracosa-1(23),5,7,9,19,21-hexaene-2,2,4-trione] | < 1000 nM | +++ (+++ is >60%)
CC1(C)C[C@@H]2CCCNc3cccc(n3)S(=O)(=O)NC(=O)c3ccc(N4CC[C@H](OCCC56CC7CC(CC(C7)C5)C6)C4=O)nc3N1C2 (single isomer, unassigned) [Compound 241] | < 1000 nM | ++ (++ is 30-60%)
CC1(C)C[C@H]2CCNc3cccc(n3)S(=O)(=O)NC(=O)c3ccc(-n4ccc(OCCC(C5CC5)C5CC5)n4)nc3N1C2 (single isomer, unassigned) [Compound 250, 11-[3-(3,3-Dicyclopropylpropoxy)-1H-pyrazol-1-yl]-7,7-dimethyl-17λ^6-thia-2,8,10,16,22-pentaazatetracyclo[16.3.1.15,8.09,14]tricosa-1(22),9,11,13,18,20-hexaene-15,17,17-trione] | < 1000 nM | ++ (++ is 30-60%)
CC1(C)C[C@H]2CNc3cccc(n3)S(=O)(=O)NC(=O)c3ccc(-n4ccc(OCCC5(C(F)(F)F)CC5)n4)nc3N1C2 (single isomer, unassigned) [Compound 24, 6,6-dimethyl-10-(3-{2-[1-(trifluoromethyl)cyclopropyl]ethoxy}-1H-pyrazol-1-yl)-16λ^6-thia-2,7,9,15,21-pentaazatetracyclo[15.3.1.14,7.08,13]docosa-1(20),8,10,12,17(21),18-hexaene-14,16,16-trione] | > 3000 nM | + (+ is <30%)
CC1(C)C[C@@H]2CCCNc3nc(ccc3O)S(=O)(=O)NC(=O)c3ccc(-n4ccc(OCCCC5(C(F)(F)F)CC5)n4)nc3N1C2 [Compound 255, (14S)-20-hydroxy-12,12-dimethyl-8-(3-{3-[1-(trifluoromethyl)cyclopropyl]propoxy}-1H-pyrazol-1-yl)-2λ^6-thia-3,9,11,18,23-pentaazatetracyclo[17.3.1.111,14.05,10]tetracosa-1(22),5,7,9,19(23),20-hexaene-2,2,4-trione] | < 1000 nM | ++ (++ is 30-60%)
CC1(C)C[C@H]2CCNc3cccc(n3)S(=O)(=O)NC(=O)c3ccc(-n4ccc(OCCC5(C(F)(F)F)CC5)n4)nc3N1C2 (single isomer, unassigned) [Compound 26, 7,7-dimethyl-11-(3-{2-[1-(trifluoromethyl)cyclopropyl]ethoxy}-1H-pyrazol-1-yl)-17λ^6-thia-2,8,10,16,22-pentaazatetracyclo[16.3.1.15,8.09,14]tricosa-1(21),9,11,13,18(22),19-hexaene-15,17,17-trione] | < 1000 nM | +++ (+++ is >60%)
Cc1c2cnn1CCCC1CN(c3nc(-n4ccc(OCC(C)(C)C(F)(F)F)n4)ccc3C(=O)NS2(=O)=O)C(C)(C)C1 (stereo not shown) [Compound 282, 20,20,22-trimethyl-4-[3-(3,3,3-trifluoro-2,2-dimethylpropoxy)-1H-pyrazol-1-yl]-10λ^6-thia-1,3,9,13,14-pentaazatetracyclo[16.2.1.111,14.02,7]docosa-2,4,6,11(22),12-pentaene-8,10,10-trione] | > 3000 nM | + (+ is <30%)
CC1(C)C[C@H]2C[C@@H](F)CNc3cccc(n3)S(=O)(=O)NC(=O)c3ccc(-n4ccc(OCCC5C6(CC6)C56CC6)n4)nc3N1C2 (single isomer, unassigned) [Compound 309, 8-[3-(2-{Dispiro[2.0.2.1]heptan-7-yl}ethoxy)-1H-pyrazol-1-yl]-16-fluoro-12,12-dimethyl-2λ^6-thia-3,9,11,18,23-pentaazatetracyclo[17.3.1.111,14.05,10]tetracosa-1(22),5,7,9,19(23),20-hexaene-2,2,4-trione] | < 1000 nM | +++ (+++ is >60%)
